For assay [1], the system named is SMN protein in SMA patient fibroblast cells (GM03813). The experiment in a line: SMN protein assay in cultured cells (SMN HTRF). The assay is classed as cell-based. Particulars: Homo sapiens, SMA Type 1 patient fibroblasts, 48 hours; for EC (1.5-fold): 7-point concentration curve, 1.5 times SMN protein vs vehicle, read-out: EC1.5x SMN protein (EC1.5x concentration for SMN protein expression); for maximal fold induction: fold increase relative to vehicle control, read-out: max. fold increase of SMN protein. From the text: The term “EC1.5x concentration for SMN protein expression” (or “EC1.5x SMN protein”) is defined as that concentration of test compound that is effective in producing 1.5 times the amount of SMN protein in an SMA patient fibroblast cell compared to the amount produced from the vehicle control.
The SMN HTRF (homogeneous time resolved fluorescence) assay is used to quantify the level of SMN protein in SMA patient fibroblast cells treated with test compounds. Materials used and respective sources are listed below in Table 4.
Cells are thawed and cultured in DMEM-10% FBS for 72 hours. Cells are trypsinized, counted and re-suspended to a concentration of 25,000 cells/mL in DMEM-10% FBS. The cell suspensions are plated at 5,000 cells per well in a 96 well microtiter plate and incubated for 3 to […]. Test compounds are serially diluted 3.16-fold in 100% DMSO to generate a 7-point concentration curve. 1 μL of test compound solution is transferred to cell-containing wells and cells are incubated for 48 hours in a cell culture incubator (37° C., 5% CO2, […]). Triplicate samples are set up for each test compound concentration. After 48 hours, the supernatant is removed from the wells and 25 μL of the RIPA lysis buffer, containing protease inhibitors, is added to the wells and incubated with shaking at room temperature for 1 hour. 25 μL of the diluent is added and then 35 μL of the resulting lysate is transferred to a 384-well plate, where each well contains 5 μL of the antibody solution (1:100 dilution of anti-SMN d2 and anti-SMN kryptate in SMN reconstitution buffer). The plate is centrifuged for 1 minute to bring the solution to the bottom of the wells, then incubated overnight at room temperature. Fluorescence for each well of the plate at 665 nm and 620 nm is measured on an EnVision multilabel plate reader (Perkin-Elmer).
The normalized fluorescence signal is calculated for each sample, Blank and vehicle control well by dividing the signal at 665 nm by the signal at 620 nm. Normalizing the signal accounts for possible fluorescence quenching due to the matrix effect of the lysate. The ΔF value (a measurement of SMN protein abundance as a percent value) for each sample well is calculated by subtracting the normalized average fluorescence for the Blank control wells from the normalized fluorescence for each sample well, then dividing this difference by the normalized average fluorescence for the Blank control wells and multiplying the resulting value by 100. The ΔF value for each sample well represents the SMN protein abundance from test compound-treated samples. The ΔF value for each sample well is divided by the ΔF value for the vehicle control wells to calculate the fold increase in SMN protein abundance relative to the vehicle control. Table 5 provides EC1.5x concentrations for SMN protein expression that was obtained from the 7-point concentration data generated according to the above procedure for particular compounds of the present invention.
Table 6 provides the maximum fold increase of SMN protein that was obtained from the 7-point concentration data generated according to the above procedure for particular compounds of the present invention

The subject of assay [2] is full length SMN2 minigene mRNA (HEK293H cells stably transfected with SMN2-A minigene). The experiment in a line: SMN2 minigene mRNA splicing RT-qPCR assay in cultured cells. Particulars: Homo sapiens, HEK293-H, 24 hours, 7-point concentration curve, 1.5-fold increase relative to vehicle, read-out: EC1.5x minigene (EC1.5x concentration for production of full length SMN2 minigene mRNA). The assay is classed as cell-based. From the text: The term “EC1.5x concentration for production of full length SMN2 minigene mRNA” (or “EC1.5x minigene”) is defined as that concentration of test compound that 1 s effective m increasing the amount of full length SMN2 minigene mRNA to a level 1.5-fold greater relative to that in vehicle-treated cells.
The reverse transcription-quantitative PCR-based (RT-qPCR) assay is used to quantify the level of the full length SMN2 minigene (referred to herein by the term “FL SMN2mini”) mRNA containing SMN2 exon 7 in a HEK293H cell line stably transfected with said minigene and treated with a test compound. Materials used and respective sources are listed below in Table 1.
The SMN2-A minigene construct was prepared as described in International Patent Application WO2009/151546A1 page 145 paragraph [00400] to page 147 paragraph [00412](incl. FIG. 1 and FIG. 3 therein).
HEK293H cells stably transfected with the SMN2-A minigene construct (10,000 cells/well) are seeded in 200 μL of cell culture medium (DMEM plus 10% FBS, with 200 μg/mL hygromycin) in 96-well flat-bottom plates and the plate is immediately swirled to ensure proper dispersal of cells and the formation of an even monolayer of cells. Cells are allowed to attach for 6 hours. Test compounds are serially diluted 3.16-fold in 100% DMSO to generate a 7-point concentration curve. A solution of test compound (1 μL, 200× in DMSO) is added to each cell-containing well and the plate is incubated for 24 hours in a cell culture incubator (37° C., 5% CO2, 100% relative humidity). 2 replicates are prepared for each test compound concentration. The cells are then lysed in the Cells-To-Ct lysis buffer and the lysate is stored at −80° C.
Full length SMN2-A minigene and GAPDH mRNA are quantified using the primers and probes referenced in Table 2. Primer SMN Forward A (SEQ ID NO.1) hybridizes to a nucleotide sequence in exon 7 (nucleotide 22 to nucleotide 40), primer SMN Reverse A (SEQ ID NO.2) hybridizes to a nucleotide sequence in the coding sequence of Firefly luciferase, SMN Probe A (SEQ ID NO.3) hybridizes to a nucleotide sequence in exon 7 (nucleotide 50 to nucleotide 54) and exon 8 (nucleotide 1 to nucleotide 21). The combination of these three oligonucleotides detects only SMN1 or SMN2 minigenes (RT-qPCR) and will not detect endogenous SMN1 or SMN2 genes.
The SMN forward and reverse primers are used at final concentrations of 0.4 μM. The SMN probe is used at a final concentration of 0.15 μM. The GAPDH primers are used at final concentrations of 0.2 μM and the probe at 0.15 μM.
The SMN2-minigene GAPDH mix (15 μL total volume) is prepared by combining 7.5 μL of 2×RT-PCR buffer, 0.4 μL of 25×RT-PCR enzyme mix, 0.75 μL of 20×GAPDH primer-probe mix, 4.0075 μL of water, 2 μL of 10-fold diluted cell lysate, 0.06 μL of 100 µM SMN forward primer, 0.06 μL of 100 μM SMN reverse primer, and 0.225 μL of 100 μM SMN probe.
PCR is carried out at the following temperatures for the indicated time: Step 1: 48° C. (15 min); Step 2: 95° C. (10 min); Step 3: 95° C. (15 sec); Step 4: 60° C. (1 min); then repeat Steps 3 and 4 for a total of 40 cycles.
Each reaction mixture contains both SMN2-A minigene and GAPDH primers/probe sets (multiplex design), allowing simultaneous measurement of the levels of two transcripts.
The increase in the abundance of the FL SMN2mini mRNA relative to that in cells treated with vehicle control is determined from real-time PCR data using a modified ΔΔCt method (as described in Livak and Schmittgen, Methods, 2001, 25:402-8). The amplification efficiency E is calculated from the slope of the amplification curve for FL SMN2mini and GAPDH individually. The abundance of FL SMN2mini and GAPDH mRNA are then calculated as (1+E)^−Ct, where Ct is the threshold value for each amplicon. The abundance of FL SMN2mini mRNA is normalized to GAPDH mRNA abundance. […]
(Real-time PCR tracks product formation cycle by cycle.)

Turning to `Cc1cn2nc(-c3cc(=O)n4cc(N5CCNC(C)(C)C5)ccc4n3)ccc2n1` [Example 23, 7-(3,3-dimethylpiperazin-1-yl)-2-(2-methylimidazo[1,2-b]pyridazin-6-yl)pyrido[1,2-a]pyrimidin-4-one], in assay [1], the EC (1.5-fold) amounted to 0.0239 µM and the maximal fold induction was 1.63. In addition, in assay [2], the EC (1.5-fold) worked out at 0.0034 µM.

Regarding `Cc1cn2nc(-c3cc(=O)n4cc(N5CCN[C@@H](C)C5)cc(C)c4n3)cc(C)c2n1` [Example 24, 2-(2,8-dimethylimidazo[1,2-b]pyridazin-6-yl)-9-methyl-7-[(3S)-3-methylpiperazin-1-yl]pyrido[1,2-a]pyrimidin-4-one], in assay [1], the EC (1.5-fold) worked out at 0.0047 µM and the maximal fold induction was determined as 1.77. Moreover, the EC (1.5-fold) in assay [2] came out at 0.0004 µM.

As to `Cc1cn2nc(-c3cc(=O)n4cc(N5CCN[C@H](C)C5)cc(C)c4n3)cc(C)c2n1` [Example 25, 2-(2,8-dimethylimidazo[1,2-b]pyridazin-6-yl)-9-methyl-7-[(3R)-3-methylpiperazin-1-yl]pyrido[1,2-a]pyrimidin-4-one], the EC (1.5-fold) in assay [1] came out at 0.0119 µM; in assay [2], 0.0005 µM. Moreover, the maximal fold induction in assay [1] was 1.79.

For the molecule `Cc1cn2nc(-c3cc(=O)n4cc(N5CCNC6(CC6)C5)cc(C)c4n3)cc(C)c2n1` [Example 28, 7-(4,7-diazaspiro[2.5]octan-7-yl)-2-(2,8-dimethylimidazo[1,2-b]pyridazin-6-yl)-9-methyl-pyrido[1,2-a]pyrimidin-4-one], in assay [1], the EC (1.5-fold) was 0.0497 µM and the maximal fold induction was found to be 1.72. The EC (1.5-fold) in assay [2] came to 0.005 µM.

`Cc1cn2nc(-c3cc(=O)n4cc(N5C[C@H](C)N[C@@H](C)C5)ccc4n3)cc(C)c2n1` [Example 29, 2-(2,8-dimethylimidazo[1,2-b]pyridazin-6-yl)-7-[(3S,5S)-3,5-dimethylpiperazin-1-yl]pyrido[1,2-a]pyrimidin-4-one]: in assay [1], the EC (1.5-fold) was 0.0021 µM and the maximal fold induction came out at 1.81. For the same molecule, the EC (1.5-fold) in assay [2] came out at 0.0003 µM.

For `Cc1cn2nc(-c3cc(=O)n4cc(N5CC[C@H](N6CCCC6)C5)ccc4n3)cc(C)c2n1` [Example 30, 2-(2,8-dimethylimidazo[1,2-b]pyridazin-6-yl)-7-[(3S)-3-pyrrolidin-1-ylpyrrolidin-1-yl]pyrido[1,2-a]pyrimidin-4-one], in assay [1], the EC (1.5-fold) was determined as 0.0136 µM and the maximal fold induction was 1.84. Also, in assay [2], the EC (1.5-fold) was 0.003 µM.

For the molecule `Cc1cn2nc(-c3cc(=O)n4cc(N5CC[C@H](N6CCCC6)C5)ccc4n3)ccc2n1` [Example 31, 2-(2-methylimidazo[1,2-b]pyridazin-6-yl)-7-[(3S)-3-pyrrolidin-1-ylpyrrolidin-1-yl]pyrido[1,2-a]pyrimidin-4-one], in assay [1], the EC (1.5-fold) was determined as 0.0277 µM and the maximal fold induction is 1.65. In assay [2], the EC (1.5-fold) is 0.0067 µM.

`Cc1cn2nc(-c3cc(=O)n4cc(N5C[C@H](C)N[C@@H](C)C5)ccc4n3)ccc2n1` [Example 32, 7-[(3S,5S)-3,5-dimethylpiperazin-1-yl]-2-(2-methylimidazo[1,2-b]pyridazin-6-yl)pyrido[1,2-a]pyrimidin-4-one]: the EC (1.5-fold) in assay [1] amounted to 0.004 µM; in assay [2], 0.0016 µM. The maximal fold induction in assay [1] was 1.88.

For `Cc1cn2nc(-c3cc(=O)n4cc(N5CCN[C@@H](C)C5)cc(C)c4n3)ccc2n1` [Example 33, 9-methyl-2-(2-methylimidazo[1,2-b]pyridazin-6-yl)-7-[(3S)-3-methylpiperazin-1-yl]pyrido[1,2-a]pyrimidin-4-one], in assay [1], the EC (1.5-fold) came to 0.004 µM and the maximal fold induction is 1.82. Besides, in assay [2], the EC (1.5-fold) was 0.0005 µM.

In the case of `Cc1cn2nc(-c3cc(=O)n4cc(N5CCN[C@H](C)C5)cc(C)c4n3)ccc2n1` [Example 34, 9-methyl-2-(2-methylimidazo[1,2-b]pyridazin-6-yl)-7-[(3R)-3-methylpiperazin-1-yl]pyrido[1,2-a]pyrimidin-4-one], the EC (1.5-fold) was found to be 0.0044 µM in assay [1] and 0.0009 µM in assay [2]. The maximal fold induction in assay [1] came to 1.89.

`Cc1cn2nc(-c3cc(=O)n4cc(N5C[C@@H](C)N[C@@H](C)C5)cc(C)c4n3)ccc2n1` [Example 35, 7-[(3R,5S)-3,5-dimethylpiperazin-1-yl]-9-methyl-2-(2-methylimidazo[1,2-b]pyridazin-6-yl)pyrido[1,2-a]pyrimidin-4-one]: in assay [1], the EC (1.5-fold) was 0.0195 µM and the maximal fold induction stood at 1.79. For the same molecule, in assay [2], the EC (1.5-fold) stood at 0.0047 µM.

As for `Cc1cn2nc(-c3cc(=O)n4cc(N5CCNC(C)(C)C5)cc(C)c4n3)ccc2n1` [Example 36, 7-(3,3-dimethylpiperazin-1-yl)-9-methyl-2-(2-methylimidazo[1,2-b]pyridazin-6-yl)pyrido[1,2-a]pyrimidin-4-one], in assay [1], the EC (1.5-fold) worked out at 0.0344 µM and the maximal fold induction was 1.77. The EC (1.5-fold) in assay [2] is 0.005 µM.

These data come from patent US11827646B2, “Compounds for treating spinal muscular atrophy” (Hoffmann-La Roche Inc., priority 2014, dated 2023).
